In US20240158447A1, “PEPTIDES FOR USE IN THE TREATMENT OR PREVENTION OF MYOCARDIAL DAMAGE” (THE UNIVERSITY OF WESTERN AUSTRALIA, priority 2020, published 2024):
Entries after “also recorded” stand apart in the source; their conditions may differ.

Tests used:
Guinea pig hearts = assay: Myocardial ischemia-reperfusion injury, Langendorff hearts ex vivo (CK, LDH, GSH:GSSG); details: for Creatine Kinase (CK) activity in perfusate: FIG. 6(a); for Lactate Dehydrogenase (LDH) activity in perfusate: FIG. 6(b); for GSH:GSSG ratio in whole heart tissue: FIG. 6(c)
Method: Adult male guinea pigs were anesthetized with pentobarbitone sodium (240 mg/kg) via intraperitoneal injection prior to excision of the heart. Guinea pig hearts were cannulated onto a Langendorff apparatus via the aorta and perfused retrogradely with Ca^2+ containing KHB comprising (in mM): 120 NaCl, 25 NaHCO3, 4.8 KCl, 2.2 MgSO4, 1.2 NaH2PO4, 11 glucose and 1.5 CaCl2 (pH=7.35 with O2/CO2 at 37° C.) at 37° C. for 30 min at a rate of 7 mL/min, followed by 30 min no-flow ischemia, then 30 min reperfusion as previously described.
Perfusates were collected 20 and 25 min pre-ischemia and 20 and 30 min following reperfusion. A single dose of 0.5-10 μM AID(S)-TAT, AID-TAT, peptide 6 or peptide 7 was added to Ca^2+-containing KHB solution just prior to reperfusion. Creatine Kinase (CK) and Lactate Dehydrogenase (LDH) activity was measured in perfusates collected pre- and post-ischemia, and post-ischemia values normalized to pre-ischemia values.
For each sample, 10 μL of perfusate was added to 100 μL CK enzyme reagent (CK NAC-activated diagnostic kit, Randox Laboratories) and the rate of increase in absorbance recorded over 15 min at 30° C. using a spectrophotometer (PowerWave XS, BioTek, 340 nm).
To determine LDH activity, 150 μL of each sample was mixed with 50 μL of LDH reagent (50 mM imidazole buffer, 375 μM NADH, pyruvate and 0.05% BSA, pH=7) and the rate of decrease in absorbance recorded over 15 min at 25° C. using a spectrophotometer (PowerWave XS, BioTek, 340 nm).
GSSG was calculated by subtracting GSH from total glutathione.

Cavβ2 subunit = target: T1, Cavβ2 subunit (Homo sapiens, UniProt Q08289); assay: Competitive binding affinity assay, biotinylated AID affinity beads vs Cavβ2 subunit (Example 9); details: dose-response 0, 10 nM to 100 μM peptide; FIG. 9
T1 construct: incubated with 100 μg of Cavβ2 subunit from cardiac homogenate and cytoplasmic protein preparation; from tissue; host or cells: cardiac homogenate and cytoplasmic protein preparation
T1 sequence (Q08289 whole entry): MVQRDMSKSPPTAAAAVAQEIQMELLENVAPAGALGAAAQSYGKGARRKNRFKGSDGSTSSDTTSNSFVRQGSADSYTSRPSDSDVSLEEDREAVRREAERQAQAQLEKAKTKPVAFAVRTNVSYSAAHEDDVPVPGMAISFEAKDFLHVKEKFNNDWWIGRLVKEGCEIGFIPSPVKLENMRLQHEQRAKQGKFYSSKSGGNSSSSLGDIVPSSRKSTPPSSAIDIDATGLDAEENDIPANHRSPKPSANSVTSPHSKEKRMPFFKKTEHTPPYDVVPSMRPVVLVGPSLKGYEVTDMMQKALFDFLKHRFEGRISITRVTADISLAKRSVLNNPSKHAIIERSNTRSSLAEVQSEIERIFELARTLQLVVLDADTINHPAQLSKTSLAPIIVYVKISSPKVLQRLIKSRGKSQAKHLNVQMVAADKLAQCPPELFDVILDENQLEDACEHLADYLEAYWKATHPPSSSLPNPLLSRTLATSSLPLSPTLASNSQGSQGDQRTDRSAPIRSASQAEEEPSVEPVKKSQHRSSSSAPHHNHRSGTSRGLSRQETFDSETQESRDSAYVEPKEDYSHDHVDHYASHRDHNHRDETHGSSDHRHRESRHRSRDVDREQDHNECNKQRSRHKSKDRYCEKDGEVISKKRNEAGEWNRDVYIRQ
Method: In this experiment, a binding affinity assay was utilized to examine the binding efficacy of AID peptide variants presented in Table 8, compared to the original AID peptide.
Biotinylation of original AID (no TAT): For each reaction (a dose-response curve consisted of 6 reactions), 0.02 nM […] was incubated in biotinylation solution (0.1M MES buffer containing 1 nM amine-PEG11-biotin and 0.2 nM EDC) for 2 hrs at room temperature with agitation (400 rpm). Affinity beads (Dynabeads M-280 Streptavidin, ThermoFisher Scientific) were then incubated with biotinylated AID peptide for 30 min at room temperature with agitation (400 rpm). Afterwards, biotinylated AID-coated affinity beads were washed, initially in 0.1% BSA in PBS and then three times in PBS for 3 min.
Biochem J. 2000; 348 Pt 3:657-65; Haase H, Striessnig J, Holtzhauer M, Vetter R, Glossmann H. A rapid procedure for the purification of cardiac 1,4-dihydropyridine receptors from porcine heart. Eur J Pharmacol. 1991; 207(1):51-9).
Competitive binding of AID-affinity beads and Cavβ2 subunit: Cavβ2-AID mutant peptide dilutions were then incubated with biotinylated AID-coated affinity beads for 2 hrs at room temperature with gentle agitation (400 rpm). Samples were placed on a magnetic stand to allow affinity beads to migrate to the magnet. Supernatant was removed and treated with 1× sample buffer (62.5 mM Tris-HCl, pH 6.8, 2% SDS, 10% glycerol, 100 mM DTT, 0.002% Bromophenol Blue) for 5 min at 95° C. Resulting protein was analysed by immunoblot.

[1] = tested on: cTnI-G203S mutant myocytes; assay: Mitochondrial membrane potential (JC-1) response to BayK(−), cTnI-G203S myocytes (Example 10); assay type: cell-based, mouse
Method: In this experiment wt myocytes were pre-exposed to 0.1, 0.5 or 1 μM for 20 min and assessed changes in flavoprotein oxidation and ψm.
Measurement of mitochondrial membrane potential: The fluorescent indicator 5,5′,6,6′-tetrachloro1,1′,3,3′-tetraethylbenzimidazolylcarbocyanine iodide (JC-1) was used to measure mitochondrial membrane potential (ψm) as previously described (Viola H M, Arthur P G, Hool L C. Transient exposure to hydrogen peroxide causes an increase in mitochondria-derived superoxide as a result of sustained alteration in L-type Ca2+ channel function in the absence of apoptosis in ventricular myocytes. Circ Res. 2007; 100(7):1036-44). […] Images were acquired at 2 min intervals with 50 ms exposure. Metamorph 6.3 (Version 7.10.3) was used to quantify the signal by manually tracing myocytes. An equivalent region not containing cells was used as background and was subtracted. The 580 nm/535 nm ratiometric fluorescence values recorded over 6 min before and 4 min after addition of drugs were averaged and alterations in fluorescent ratios reported as the percentage increase from the basal average. To confirm that the signal was indicative of ψm, 40 mM NaCN was added at the end of each experiment to collapse ψm. In addition, individual 580 and 535 signals were assessed in each experiment to determine whether the fluorescent indicator was accurately measuring ψm. For calcium-free experiments, cells were exposed to calcium-free HBS (supplemented with 3 mM EGTA and 200 nM JC-1) for at least 3 h prior to measuring changes in ψm.
Based on results obtained from in vitro assessment of flavoprotein oxidation, the effect of 0.5 μM AID-TAT variants on changes in mitochondrial membrane potential (ψm) was further explored. Experiments were performed using JC-1 fluorescence under calcium-free conditions as previously described (Viola H, Johnstone V, Cserne Szappanos H, Richman T, Tsoutsman T, Filipovska A, et al. The L-type Ca(2+) channel facilitates abnormal metabolic activity in the cTnI-G2035 mouse model of hypertrophic cardiomyopathy. J Physiol. 2016; 594(14):4051-70; Viola H M, Shah A A, Johnstone V P A, Cserne Szappanos H, Hodson M P, Hool L C. Characterization and validation of a preventative therapy for hypertrophic cardiomyopathy in a murine model of the disease. Proc Natl Acad Sci U S A. 2020; 117(37):23113-24). […] FIG. 11 presents the mean+/−SE of JC-1 fluorescence from cTnI.2 wt and cTnI-G203S mutant myocytes before and after exposure to 10 μM BayK(−) in the presence of 1 μM AID(S)-TAT, and 0.5 μM of variant peptides as indicated. N=no. of animals, n=no. of cardiomyocytes. P values shown compared with AID(S)-TAT as determined by the Kruskal-Wallis test.

[2] = 0.5 μM peptide added just prior to reperfusion
[3] = 1 μM peptide added just prior to reperfusion

AIDP7-TAT: QQQEEDLKGYLDWITQAE with TAT sequence
Creatine Kinase (CK) activity in perfusate (Guinea pig hearts; [2]): reduced compared to the AID(S)-TAT peptide; also recorded: reduced in both P7-TAT (1 μM) and P7-TAT (0.5 μM) compared to the P6-TAT peptide; also recorded: at least as effective as AID-TAT (1 μM)
Lactate Dehydrogenase (LDH) activity in perfusate (Guinea pig hearts; [2]): reduced compared to the AID(S)-TAT peptide; also recorded: reduced LDH at least as well as AID-TAT (1 μM)
GSH:GSSG ratio in whole heart tissue (Guinea pig hearts; 0.5 μM peptide): statistically significant increase in the GSH:GSSG ratio, comparable to the AID-TAT samples at 10 μM
Creatine Kinase (CK) activity in perfusate (Guinea pig hearts; [3]): reduced compared to the AID(S)-TAT peptide; also recorded: reduced in both P7-TAT (1 μM) and P7-TAT (0.5 μM) compared to the P6-TAT peptide
Lactate Dehydrogenase (LDH) activity in perfusate (Guinea pig hearts; [3]): reduced compared to the AID(S)-TAT peptide
GSH:GSSG ratio in whole heart tissue (Guinea pig hearts; 1 μM peptide): statistically significant increase in the GSH:GSSG ratio, comparable to the AID-TAT samples at 10 μM
oxidative stress (CK activity, LDH activity and GSH:GSSG ratio taken together) (Guinea pig hearts; same concentration or lower dosages of P7-TAT versus AID-TAT): more effective than AID-TAT at reducing oxidative stress
K0.5 values compared to AID peptide (Cavβ2 subunit): decreased K0.5 values
BayK(−) induced increase in ψm (JC-1 fluorescence) ([1]; 0.5 μM peptide, calcium-free, FIG. 11B): significantly attenuated the response
normalising mitochondrial metabolic activity (in vitro, overall) ([1]; flavoprotein oxidation and JC-1 data together): most effective in normalising mitochondrial metabolic activity
